Measured values published in patent publication US11103454B2, “Wax foamable vehicle and pharmaceutical compositions thereof” (VYNE THERAPEUTICS INC., priority 2007, dated 2021).

Description: In one or more embodiments, the foamable composition includes a potent solvent, in addition to or in place of one of the hydrophobic solvents, polar solvents or emollients of the composition. A potent solvent is a solvent other than mineral oil that solubilizes a specific active agent substantially better than a hydrocarbon solvent such as mineral oil or petrolatum.

| Structure (SMILES) | Solubility in glycofurol | Solubility in mineral oil [%] | Solubility in dimethyl isosorbide | Solubility in propylene glycol | Solubility in polyethylene glycol 400 (PEG 400) | Solubility in isostearic acid |
| --- | --- | --- | --- | --- | --- | --- |
| CC(=O)N1CCN(c2ccc(OCC3COC(Cn4ccnc4)(c4ccc(Cl)cc4Cl)O3)cc2)CC1 (stereo not drawn) [Ketoconazole] | more than 1% | < 0.01 | more than 1% | more than 1% | – | – |
| Cc1cnc(NC(=O)C2=C(O)c3ccccc3S(=O)(=O)N2C)s1 [Meloxicam] | – | < 0.001 | – | – | – | – |
| Cc1ncc([N+](=O)[O-])n1CCO [Metronidazole] | – | < 0.01 | more than 1% | – | – | – |
| C/C(=C\C(=O)OCCCCCCCCC(=O)O)C[C@@H]1OC[C@H](C[C@@H]2O[C@H]2[C@@H](C)[C@H](C)O)[C@@H](O)[C@H]1O [Mupirocin] | more than 1% | < 0.01 | more than 1% | more than 1% | more than 1% | – |
| CC(C)Cn1cnc2c(N)nc3ccccc3c21 [imiquimod, 4-Amino-1-isobutyl-1H-imidazo[4,5-c] quinoline] | – | – | – | – | – | soluble |

Other lines, results leading:

| Solubility in glycofurol | Solubility in mineral oil [%] | Solubility in dimethyl isosorbide | Solubility in propylene glycol | Solubility in polyethylene glycol 400 (PEG 400) | Solubility in isostearic acid | Structure (SMILES) |
| --- | --- | --- | --- | --- | --- | --- |
| more than 1% | < 0.01 | – | – | – | – | CCCCC(=O)O[C@]1(C(=O)CO)[C@@H](C)C[C@H]2[C@@H]3CCC4=CC(=O)C=C[C@]4(C)[C@@]3(F)[C@@H](O)C[C@@]21C [Betamethasone valerate] |
| more than 1% | < 0.01 | – | – | – | – | CCCC(=O)O[C@]1(C(=O)CO)CC[C@H]2[C@@H]3CCC4=CC(=O)CC[C@]4(C)[C@H]3[C@@H](O)C[C@@]21C [Hydrocortisone butyrate] |
| – | < 0.001 | – | – | – | – | CC(=O)[C@H]1CC[C@H]2[C@@H]3CCC4=CC(=O)CC[C@]4(C)[C@H]3CC[C@]12C [Progesterone] |
